# Source: PubChem BioAssay (NCI)
#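 Results reflect a 48-hour exposure of cells in 96-well plates to compound at five concentrations. Here, GI50 denotes the concentration required for 50% inhibition of growth. TGI marks complete inhibition of growth.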
# Columns and labels:
# Assay in all cases: NCI anticancer screen, dose series, 48 h
# [1] = test system: SF-268 CNS
# [2] = test system: UO-31 renal
# [3] = test system: PC-3 prostate
# [4] = test system: MALME-3M melanoma
# [5] = test system: NCI-H23 lung
# [6] = test system: CCRF-CEM leukemia
# [7] = test system: SK-OV-3 ovarian
# [8] = test system: NCI-H460 lung
# [9] = test system: UACC-62 melanoma
# [10] = test system: A549 NSCLC
SMILES,TGI [1] [µM],TGI [2] [µM],TGI [3] [µM],TGI [4] [µM],TGI [5] [µM],TGI [6] [µM],TGI [7] [µM],TGI [8] [µM],TGI [9] [µM],TGI [10] [µM],GI50 [2] [µM],GI50 [3] [µM],GI50 [4] [µM],GI50 [5] [µM],GI50 [6] [µM],GI50 [7] [µM],GI50 [8] [µM],GI50 [9] [µM],GI50 [10] [µM],GI50 [1] [µM]
CN1Cc2cc(O)c(O)cc2C(O)C1 (stereo not drawn),> 100,> 100,> 100,> 100,> 100,> 100,> 100,> 100,> 100,> 100,,,,,,,,,,
CC(C(=O)c1ccncc1)c1ccccn1 (stereo not drawn),> 100,> 100,> 100,> 100,> 100,> 100,> 100,> 100,> 100,> 100,,,,,,,,,,
COC(=O)C(Cc1ccc(N(C)C)cc1)(NC(=O)c1ccccc1)P(=O)(OC)OC (stereo not drawn),> 100,> 100,,,> 100,> 100,> 100,> 100,> 100,> 100,,,,,,,,,,
S=c1nc(N/N=C/c2cccs2)c2cn[nH]c2[nH]1,> 100,> 100,37.5,> 100,66.4,,> 100,13.1,> 100,14.5,,,,,,,,,,
COc1ccc(NC(C(N)=O)c2cc3cc(Br)ccc3nc2Cl)cc1 (stereo not drawn),> 100,> 100,> 100,> 100,> 100,> 100,> 100,> 100,> 100,> 100,,,,,,,,,,
COC1=C(C)C(=O)C2=C(C1=O)C1C3CC4=C(C(=O)C(OC)=C(C)C4=O)C(CNC(=O)C(C)O)N3C(C#N)C(C2)N1C (stereo not drawn),0.146,0.731,1.74,< 0.0139,0.0183,1.38,1.2,0.179,< 0.01,,,,,,,,,,,
C=CC(C)C1(CCCOCc2ccccc2)C(=S)N2CCC3(CC24CCCC14)OCCO3 (stereo not drawn),> 100,> 100,,> 100,> 100,> 100,> 100,> 100,> 100,> 100,,,,,,,,,,
COC1=CC(=O)C=C(OC)C1=O,15.3,54.1,,51,22.7,4.88,40.3,57.1,11.6,95.7,,,,,,,,,,
COC(=O)CNC(=O)CCC(C)[C@H]1CCC2C3C(C[C@H](OC(C)=O)[C@@]21C)[C@@]1(C)CCC2(C[C@H]1C[C@H]3OC(C)=O)OOC1(CC[C@]3(C)C4C[C@H](OC(C)=O)[C@@]5(C)C(CC[C@@H]5C(C)CCC(=O)NCC(=O)OC)C4[C@H](OC(C)=O)C[C@@H]3C1)OO2 (stereo partly drawn),16.1,1.51,8.69,1.93,3.66,1.57,13.9,26.4,,2.37,,,,,,,,,,
COC(=O)[C@]1(c2ccc(N(C)C)cc2OC)C[C@@H]2CCCN(CCc3c1[nH]c1ccccc31)C2,71.2,33.2,,33.2,> 51.1,> 84.3,> 61.4,33.7,32.4,> 65.5,,,,,,,,,,
COc1cc2c(cc1Oc1c(Oc3c(O)c(OC)cc4c3C(CC(C)C)N(C)CC4)c(OC)cc3c1C(CC(C)C)N(C)CC3)C(CC(C)C)N(C)CC2 (stereo not drawn),8.85,11.9,,7.39,4.91,6.3,11.8,1.69,4.02,6.39,,,,,,,,,,
O=C(Nc1ccccc1Cl)c1ccc([N+](=O)[O-])cc1,> 100,> 100,,> 100,> 100,> 100,> 100,> 100,> 100,> 100,,,,,,,,,,
COC(=O)c1cn(CC(O)CCl)nn1 (stereo not drawn),> 100,> 100,> 100,> 100,> 100,> 100,,> 100,,> 100,,,,,,,,,,
CCCCCCCCCCCCCC[n+]1ccc(C(N)=O)cc1,,24.3,2.88,7.72,15.2,> 100,10.9,8.18,4.65,6.65,7.65,0.703,2.27,2.42,2.52,2.33,2.58,1.9,2.4,
CCOc1ccc(C(C)c2cc3c(cc2OC)OCO3)cc1 (stereo not drawn),45.5,> 100,,89.7,> 100,,> 100,> 100,> 100,90.8,,,,,,,,,,
CN(O)C(=O)CCCC(=O)NCC(C)(C)CNC(=O)CCCC(=O)N(C)O,> 100,> 100,> 100,> 100,> 100,> 100,> 100,> 100,> 100,> 100,,,,,,,,,,
Cc1cc(OCCOCCC(F)(F)P(=O)(O)O)ccc1CCc1cnc2c(N)nc3cc(CCC(=O)O)ccc3c2c1,> 100,> 100,> 100,> 100,> 100,> 100,> 100,> 100,> 100,> 100,> 100,> 100,> 100,> 100,> 100,> 100,> 100,> 100,> 100,> 100
O=C(O)/C(=C\c1ccc(O)cc1)c1cccc2ccccc12,> 100,> 100,> 100,> 100,> 100,,,> 100,> 100,> 100,,,,,,,,,,
O=P(Nc1ccccc1)(Oc1ccccc1)N(CCCl)CCCl (stereo not drawn),> 100,28.2,,> 100,> 100,> 100,44.2,,> 100,> 100,,,,,,,,,,
COc1cc2cc(C(=O)N3CC(CCl)c4ccc(N(C)C)cc43)[nH]c2c(OC)c1OC (stereo not drawn),3.81,0.143,0.979,,0.118,0.633,1.54,7.01,0.524,,,,,,,,,,,
Cc1ccc(N=Nc2c(O)ccc3cc(S(=O)(=O)O)ccc23)cc1,> 100,> 100,> 100,> 100,> 100,> 100,> 100,> 100,> 100,> 100,,,,,,,,,,
Cc1[nH]c2ccccc2c1/C=N/NC(=O)c1cccc(I)c1,> 100,61.6,66,65.6,53.5,63.2,93.5,36.1,34.5,85.6,,,,,,,,,,
